For series [1] the following is noted: pH 2.7.
Series [2] relates to Plasmopara viticola. Description: Plasmopara test (grapevines)/preventive. The series is classed as in vivo. Particulars: preventive spray, 10 ppm of active ingredient, evaluated 6 days after inoculation. On the procedure:
Solvent: 24.5 parts by weight of acetone • 24.5 parts by weight of dimethylacetamide
Emulsifier: 1 part by weight of alkylaryl polyglycol ether
To produce a suitable preparation of active compound, 1 part by weight of active compound is mixed with the stated amounts of solvent and emulsifier, and the concentrate is diluted with water to the desired concentration.
To test for preventive activity, young plants are sprayed with the preparation of active compound at the stated rate of application. After the spray coating has dried on, the plants are inoculated with an aqueous spore suspension of Plasmopara viticola and then remain for 1 day in an incubation cabinet at approximately 20° C. and a relative atmospheric humidity of 100%. The plant is subsequently placed for 4 days in a greenhouse at approximately 21° C. and a relative atmospheric humidity of approximately 90%. The plants are then misted and placed for 1 day in an incubation cabinet.
The test is evaluated 6 days after the inoculation. 0% means an efficacy which corresponds to that of the untreated control, while an efficacy of 100% means that no disease is observed.

The test system of series [3] is Phytophthora infestans. It counts as in vivo. Particulars: tomato, preventive spray, 100 ppm of active ingredient, evaluated 7 days after inoculation.
Series [4] concerns Phytophthora infestans. The series is classed as in vivo. As to conditions: tomato plants, spray, 500 ppm, grading 5 days after contamination.
Series [5] has as its system Mycosphaerella graminicola. Kind of series: In vivo test on Mycosphaerella graminicola (wheat leaf spot). As to conditions: wheat plants, spray, 500 ppm, grading 21 to 28 days after contamination. On the procedure:
The active ingredients tested are prepared by homogenization in a mixture of acetone/tween/DMSO, then diluted with water to obtain the desired active material concentration.
Wheat plants (Scipion variety), sown on a 50/50 peat soil-pozzolana substrate in starter cups and grown at 22° C. (12 h)/20° C. (12 h), are treated at the 1-leaf stage (10 cm tall) by spraying with the aqueous suspension described above. Plants, used as controls, are treated with an aqueous solution not containing the active material.
After 24 hours, the plants are contaminated by spraying them with an aqueous suspension of cryopreserved Mycosphaerella graminicola spores (500.000 spores per ml). The contaminated wheat plants are incubated for 72 hours at 18° C. and at 100% relative humidity, and then for 21 to 28 days at 90% relative humidity.
Grading (% of efficacy) is carried out 21 to 28 days after the contamination, in comparison with the control plants.
(§1) Under these conditions, good (at least 70%) or total protection is observed at a dose of 500 ppm with the following compounds: […]

The test system of series [6] is Puccinia recondita. Kind of series: In vivo test on Puccinia recondita (brown rust). As to conditions: wheat plants, spray, 500 ppm, grading 10 days after contamination. The method, then:
The active ingredients tested are prepared by homogenization in a mixture of acetone/tween/DMSO, then diluted with water to obtain the desired active material.
Wheat plants (Scipion variety) sown on 50/50 peat soil-pozzolana substrate in starter cups and grown at 22° C. (12 h)/20° C. (12 h), are treated at the 1-leaf stage (10 cm tall) by spraying with the aqueous suspension described above.
Plants, used as controls, are treated with an aqueous solution not containing the active material. After 24 hours, the plants are contaminated by spraying the leaves with an aqueous suspension of Puccinia recondite spores (100.000 spores per ml). The spores are collected from a 10-day-old contaminated wheat and are suspended in water containing 2.5 ml/l of tween 80 10%. The contaminated wheat plants are incubated for 24 hours at 20° C. and at 100% relative humidity, and then for 10 days at 20° C. and at 70% relative humidity. Grading is carried out 10 days after the contamination, in comparison with the control plants.
as §1

Read-outs that look alike come from different tables or passages of the source. Marks after values point to notes of the source that are not given here.

By LogP is commonly meant the decadic logarithm of the partition coefficient of the neutral form, usually between octanol and water.

In the case of `CCCCCCC(=O)Nc1cccc(CO/N=C(/c2ccccc2)c2noc(=O)n2C)n1` [Example 8], the LogP in series [1] was 4.3 [a]. Besides, the Eff. % in series [2] is recorded as 99%; in series [3] it was 98%; in series [4] it was 100%.
For `CCCCCCC(=O)Nc1nc(CO/N=C(/c2ccccc2)c2noc(=O)n2C)cs1` [Example 9], the LogP in series [1] is 4.13 [a]. Also, the Eff. % in series [2] is recorded as 94%; in series [3], 95%.
In the same order, the values of `Cn1c(/C(=N\OCc2csc(NC(=O)C3COc4ccccc4O3)n2)c2ccccc2)noc1=O` (stereo not drawn) [Example 10] are 3.62 [a], 96% and 95%.
In the same order, the values of `Cn1c(/C(=N\OCc2csc(NC(=O)C3CCc4ccccc4O3)n2)c2ccccc2)noc1=O` (stereo not drawn) [Example 11] are 3.94 [a], 98% and 100%.
Consider `CCCCCOC(=O)Nc1nc(CO/N=C(/c2ccccc2)c2noc(=O)n2C)cs1` [Example 12], for which the LogP in series [1] is 4.11 [a]. In addition, the Eff. % in series [2] came out at 94%; in series [3] it was 95%.
For `CCCCC(=O)Nc1nc(CO/N=C(/c2ccccc2)c2noc(=O)n2C)cs1` [Example 13], in series [1], the LogP is 3.37 [a]. Besides, the Eff. % in series [2] was 93%; in series [3] it was 95%.
With `Cn1c(/C(=N\OCc2cccc(NC(=O)OCC3CCCC3)n2)c2ccccc2)noc1=O` [Example 16], the LogP in series [1] is 4.53 [a]. Also, the Eff. % came to 94% in series [2] and 98% in series [3].
In the same order, the values of `Cn1c(/C(=N\OCc2cccc(NC(=O)c3cccc(F)c3)n2)c2ccccc2)noc1=O` [Example 17] are 3.69 [a], 94% and 98%.
With `Cn1c(/C(=N\OCc2csc(NC(=O)c3cccc(F)c3)n2)c2ccccc2)noc1=O` [Example 20], the LogP in series [1] was 3.6 [a]. For the same compound, the results for the Eff. % in series [2] and in series [3] were 94% and 95%, respectively.
As to `Cc1cccc(/C(=N/OCc2cccc(N)n2)c2noc(=O)n2C)c1` [Example 30], the Eff. % in series [5] worked out at 86%; in series [4], 100%. In series [1], the LogP was 1.45 [a].
Take `Cn1c(/C(=N\OCc2cccc(NC(=O)CCCl)n2)c2ccccc2)noc1=O` [Example 63]: the Eff. % in series [6] is given as 75%; in series [4] it was 100%. Also, the LogP in series [1] was 3.02 [a].
In the same order, the values of `Cn1c(/C(=N\OCc2cccc(NC(=O)CCCCBr)n2)c2ccccc2)noc1=O` [Example 73] are 81%, 100% and 3.59 [a].
For the compound `Cn1c(/C(=N\OCc2cccc(NCCc3ccccc3)n2)c2ccccc2)noc1=O` [Example 74], the log partition coefficient (LogP) in series [1] is 2.78 [a]. Further, the Eff. % in series [2] came to 94%; in series [3] it was 95%.
Take `CCn1c(/C(=N\OCc2cccc(NC(=O)Cc3ccc(OC)cc3)n2)c2ccccc2)noc1=O` [Example 88]: the results for the Eff. % in series [6] and in series [4] were 78% and 98%, respectively. Moreover, in series [1], the LogP is 3.7 [a].
In the case of `C#CCCOC(=O)Nc1cccc(CO/N=C(/c2ccccc2)c2noc(=O)n2CC)n1` [Example 104], the LogP in series [1] was 3.51 [a]. Moreover, the Eff. % was found to be 100% in series [2] and 93% in series [3].
Turning to `CCC(C)(C)OC(=O)Nc1cccc(CO/N=C(/c2ccccc2)c2noc(=O)n2C)n1` [Example 120], the Eff. % in series [6] amounted to 98%; in series [2], 84%; in series [4], 100%. The LogP in series [1] was 1.99 [a].
On to `COc1cccc(/C(=N/OCc2cccc(NC(=O)OC(C)(C)C)n2)c2noc(=O)n2C)c1` [Example 131], for which the Eff. % in series [6] came out at 81%; in series [4], 100%. In addition, in series [1], the LogP is 3.99 [a].
In the case of `Cn1c(/C(=N\OCc2cccc(NC/C=N/OCc3ccccc3)n2)c2ccccc2)noc1=O` [Example 136], the lipophilicity (LogP) in series [1] is 3.35 [a]. For the same compound, the values for the Eff. % in series [2] and in series [3] were 75% and 95%, respectively.
For `Cn1c(/C(=N\OCc2cccc(NC(=O)C(C)(C)C)n2)c2ccccc2)noc1=O` [Example 148], in series [1], the lipophilicity (LogP) is 3.48 [a]. Further, the Eff. % in series [2] is reported as 100%; in series [3], 97%; in series [4] it was 100%.
With `CCCCCCNc1cccc(CO/N=C(/c2ccccc2)c2noc(=O)n2C)n1` [Example 163], the LogP in series [1] was 2.64 [a]. The Eff. % in series [2] was 96%; in series [3] it was 95%.
Turning to `COc1ccc(/C(=N/OCc2cccc(NC(=O)C(F)(F)F)n2)c2noc(=O)n2C)cc1` [Example 191], the Eff. % in series [6] was 89%; in series [4], 95%. For the same compound, the LogP in series [1] was 3.37 [a].
For the compound `CCCCCC(=O)Nc1nc(CO/N=C(/c2ccccc2)c2noc(=O)n2C)cs1` [Example 198], the LogP in series [1] is 3.76 [a]. In addition, the results for the Eff. % in series [2] and in series [3] were 100% and 95%, respectively.
Take `CCCCOC(=O)Nc1cccc(CO/N=C(/c2cccc(C)c2)c2noc(=O)n2C)n1` [Example 215]: the values for the Eff. % in series [6] and in series [4] were 81% and 98%, respectively. For the same compound, the LogP in series [1] was 4.36 [a].
In the case of `Cc1cccc(/C(=N/OCc2cccc(NC(=O)OC(C)CC(C)C)n2)c2noc(=O)n2C)c1` (stereo not drawn) [Example 223], the Eff. % in series [5] was 80%. Besides, the LogP in series [1] was 5.05 [a].
On to `CC(C)C(C)OC(=O)Nc1cccc(CO/N=C(/c2ccccc2)c2noc(=O)n2C)n1` (stereo not drawn) [Example 292], for which the Eff. % worked out at 75% in series [6], 90% in series [2] and 99% in series [4]. The log partition coefficient (LogP) in series [1] was 4.27 [a].
For `C#CC(C)(C)OC(=O)Nc1cccc(CO/N=C(/c2ccccc2)c2noc(=O)n2C)n1` [Example 317], the Eff. % in series [6] was 81%; in series [2] it was 91%; in series [4], 98%. Further, the LogP in series [1] is 3.6 [a].
In the case of `Cn1c(/C(=N\OCc2cccc(NC(=O)CCc3ccccc3)n2)c2ccc(F)cc2)noc1=O` [Example 324], the Eff. % was found to be 75% in series [6] and 94% in series [4]. For the same compound, the LogP in series [1] is 3.87 [a].
Regarding `COc1cccc(/C(=N/OCc2cccc(NC(=O)OCCc3ccccc3)n2)c2noc(=O)n2C)c1` [Example 325], the Eff. % in series [6] was 75%; in series [2], 84%; in series [4], 99%. In series [1], the LogP is 4.19 [a].
For `Cn1c(/C(=N\OCc2cccc(N(C(=O)Oc3ccc(F)cc3)C(=O)Oc3ccc(F)cc3)n2)c2ccccc2)noc1=O` [Example 330], the Eff. % in series [5] came to 83%. Also, the LogP in series [1] was 4.2 [a].
Consider `Cn1c(/C(=N\OCc2cccc(NC(=O)CCc3ccccc3)n2)c2ccccc2)noc1=O` [Example 347], for which the LogP in series [1] is 3.78 [a]. Besides, the Eff. % in series [2] worked out at 100%; in series [3], 92%; in series [4], 100%.
As for `Cn1c(/C(=N\OCc2cccc(NC(=O)OC3CCCCC3)n2)c2ccc(F)cc2)noc1=O` [Example 351], the Eff. % in series [6] turned out to be 75%; in series [4], 93%. For the same compound, the LogP in series [1] is 4.54 [a].
With `C#CCCC(C)OC(=O)Nc1cccc(CO/N=C(/c2ccccc2)c2noc(=O)n2C)n1` (stereo not drawn) [Example 395], the values for the Eff. % in series [6], in series [2] and in series [4] were 72%, 93% and 99%, respectively. Also, the LogP in series [1] is 3.8 [a].
With `C#CCCOC(=O)Nc1cccc(CO/N=C(/c2ccccc2)c2noc(=O)n2CC=C)n1` [Example 405], the LogP in series [1] is 3.61 [a]. In addition, the Eff. % is recorded as 85% in series [2] and 95% in series [3].

(Values after patent US9090600B2, “Fungicidal 4-substituted-3-{phenyl[(heterocyclylmethoxy)imino]methyl}-1,2,4-oxadizol-5(4H)-one derivatives” (BAYER INTELLECTUAL PROPERTY GMBH, priority 2011, dated 2015).)
